# In ChEMBL document CHEMBL3885881, “DrugMatrix”:
# Species on record: Rattus norvegicus
# Assay: DrugMatrix - Regimen: Daily Repeat
# Format: toxicity, organism-based, Sprague-Dawley
# Design: regimen Daily Repeat, gender Male, age 6-8 weeks
# Conditions: in vivo, po, route oral GAVAGE, […]; for ABSOLUTE BASOPHIL / ABSOLUTE EOSINOPHIL / ABSOLUTE LYMPHOCYTE / ABSOLUTE MONOCYTE / ABSOLUTE SEGMENTED NEUTROPHIL / BASOPHIL / EOSINOPHIL / ERYTHROCYTE COUNT / HEMATOCRIT / HEMOGLOBIN / LEUKOCYTE COUNT / LYMPHOCYTE / MEAN CORPUSCULAR HEMOGLOBIN / MEAN CORPUSCULAR HEMOGLOBIN CONCENTRATION / MEAN CORPUSCULAR VOLUME / MONOCYTE / NEUTROPHIL / NUCLEATED RED BLOOD CELLS / PLATELET COUNT: tissue Blood; for ALANINE AMINOTRANSFERASE / ALBUMIN / ALKALINE PHOSPHATASE / ASPARTATE AMINOTRANSFERASE / BLOOD UREA NITROGEN / CARBON DIOXIDE / CHLORIDE / CHOLESTEROL / CREATINE PHOSPHOKINASE / CREATININE / GLUCOSE / LACTATE DEHYDROGENASE / LIPASE / PHOSPHORUS / POTASSIUM / SODIUM / TOTAL BILIRUBIN / TOTAL PROTEIN / URIC ACID: tissue Plasma
# [1] = 40 mg/kg, 72 h, dose level Low, time 3 day
# [2] = 40 mg/kg, 120 h, dose level Low, time 5 day
# [3] = 444 mg/kg, 72 h, dose level High, time 3 day
# [4] = 444 mg/kg, 120 h, dose level High, time 5 day
structure (smiles),measurement,setting,value
COC(=O)c1ccccc1O [METHYL SALICYLATE],ABSOLUTE BASOPHIL,[1],0 CELLS/uL
same,ABSOLUTE EOSINOPHIL,[1],96.67 CELLS/uL
same,ABSOLUTE LYMPHOCYTE,[1],12979.67 CELLS/uL
same,ABSOLUTE MONOCYTE,[1],290.67 CELLS/uL
same,ABSOLUTE SEGMENTED NEUTROPHIL,[1],1366.33 CELLS/uL
same,BASOPHIL,[1],0%
same,EOSINOPHIL,[1],0.67%
same,ERYTHROCYTE COUNT,[1],5.47 x10E6/uL
same,HEMATOCRIT,[1],34.27%
same,HEMOGLOBIN,[1],13.3 G/DL
same,LEUKOCYTE COUNT,[1],14.73 x10E3/uL
same,LYMPHOCYTE,[1],88%
same,MEAN CORPUSCULAR HEMOGLOBIN,[1],24.33 pg
same,MEAN CORPUSCULAR HEMOGLOBIN CONCENTRATION,[1],38.83 G/DL
same,MEAN CORPUSCULAR VOLUME,[1],62.67 fL
same,MONOCYTE,[1],2%
same,NEUTROPHIL,[1],9.33%
same,NUCLEATED RED BLOOD CELLS,[1],0 /100WBC
same,PLATELET COUNT,[1],1233.67 x10E3/uL
same,ALANINE AMINOTRANSFERASE,[1],69.33 u/L
same,ALBUMIN,[1],3.93 G/DL
same,ALKALINE PHOSPHATASE,[1],411 u/L
same,ASPARTATE AMINOTRANSFERASE,[1],90 u/L
same,BLOOD UREA NITROGEN,[1],10.67 mg/dL
same,CARBON DIOXIDE,[1],25 mmol/L
same,CHLORIDE,[1],101 MEQ/L
same,CHOLESTEROL,[1],68 mg/dL
same,CREATINE PHOSPHOKINASE,[1],276 u/L
same,CREATININE,[1],0.17 mg/dL
same,GLUCOSE,[1],149.67 mg/dL
same,LACTATE DEHYDROGENASE,[1],146.67 u/L
same,LIPASE,[1],12 u/L
same,PHOSPHORUS,[1],11.03 mg/dL
same,POTASSIUM,[1],6.55 MEQ/L
same,SODIUM,[1],142.03 MEQ/L
same,TOTAL BILIRUBIN,[1],0.2 mg/dL
same,TOTAL PROTEIN,[1],5.6 G/DL
same,URIC ACID,[1],1.37 mg/dL
same,ABSOLUTE BASOPHIL,[2],0 CELLS/uL
same,ABSOLUTE EOSINOPHIL,[2],46 CELLS/uL
same,ABSOLUTE LYMPHOCYTE,[2],12546.67 CELLS/uL
same,ABSOLUTE MONOCYTE,[2],258.67 CELLS/uL
same,ABSOLUTE SEGMENTED NEUTROPHIL,[2],1848.67 CELLS/uL
same,BASOPHIL,[2],0%
same,EOSINOPHIL,[2],0.33%
same,ERYTHROCYTE COUNT,[2],5.18 x10E6/uL
same,HEMATOCRIT,[2],34.3%
same,HEMOGLOBIN,[2],13.77 G/DL
same,LEUKOCYTE COUNT,[2],14.7 x10E3/uL
same,LYMPHOCYTE,[2],85.67%
same,MEAN CORPUSCULAR HEMOGLOBIN,[2],26.7 pg
same,MEAN CORPUSCULAR HEMOGLOBIN CONCENTRATION,[2],40.13 G/DL
same,MEAN CORPUSCULAR VOLUME,[2],66.53 fL
same,MONOCYTE,[2],1.67%
same,NEUTROPHIL,[2],12.33%
same,NUCLEATED RED BLOOD CELLS,[2],0 /100WBC
same,PLATELET COUNT,[2],1368.67 x10E3/uL
same,ALANINE AMINOTRANSFERASE,[2],59 u/L
same,ALBUMIN,[2],4.17 G/DL
same,ALKALINE PHOSPHATASE,[2],468.33 u/L
same,ASPARTATE AMINOTRANSFERASE,[2],97.67 u/L
same,BLOOD UREA NITROGEN,[2],11 mg/dL
same,CARBON DIOXIDE,[2],34.67 mmol/L
same,CHLORIDE,[2],100.67 MEQ/L
same,CHOLESTEROL,[2],60.33 mg/dL
same,CREATINE PHOSPHOKINASE,[2],364.67 u/L
same,CREATININE,[2],0.16 mg/dL
same,GLUCOSE,[2],144 mg/dL
same,LACTATE DEHYDROGENASE,[2],490.67 u/L
same,LIPASE,[2],11 u/L
same,PHOSPHORUS,[2],10.47 mg/dL
same,POTASSIUM,[2],6.4 MEQ/L
same,SODIUM,[2],143.33 MEQ/L
same,TOTAL BILIRUBIN,[2],0.2 mg/dL
same,TOTAL PROTEIN,[2],5.73 G/DL
same,URIC ACID,[2],1.43 mg/dL
same,ABSOLUTE BASOPHIL,[3],0 CELLS/uL
same,ABSOLUTE EOSINOPHIL,[3],0 CELLS/uL
same,ABSOLUTE LYMPHOCYTE,[3],15083 CELLS/uL
same,ABSOLUTE MONOCYTE,[3],294 CELLS/uL
same,ABSOLUTE SEGMENTED NEUTROPHIL,[3],1723 CELLS/uL
same,BASOPHIL,[3],0%
same,EOSINOPHIL,[3],0%
same,ERYTHROCYTE COUNT,[3],6.27 x10E6/uL
same,HEMATOCRIT,[3],39.33%
same,HEMOGLOBIN,[3],15.27 G/DL
same,LEUKOCYTE COUNT,[3],17.1 x10E3/uL
same,LYMPHOCYTE,[3],88.33%
same,MEAN CORPUSCULAR HEMOGLOBIN,[3],24.37 pg
same,MEAN CORPUSCULAR HEMOGLOBIN CONCENTRATION,[3],38.83 G/DL
same,MEAN CORPUSCULAR VOLUME,[3],62.8 fL
same,MONOCYTE,[3],1.67%
same,NEUTROPHIL,[3],10%
same,NUCLEATED RED BLOOD CELLS,[3],0 /100WBC
same,PLATELET COUNT,[3],1017 x10E3/uL
same,ALANINE AMINOTRANSFERASE,[3],109 u/L
same,ALBUMIN,[3],4.4 G/DL
same,ALKALINE PHOSPHATASE,[3],443.33 u/L
same,ASPARTATE AMINOTRANSFERASE,[3],121 u/L
same,BLOOD UREA NITROGEN,[3],11.33 mg/dL
same,CARBON DIOXIDE,[3],27.67 mmol/L
same,CHLORIDE,[3],99.33 MEQ/L
same,CHOLESTEROL,[3],62.33 mg/dL
same,CREATINE PHOSPHOKINASE,[3],782 u/L
same,CREATININE,[3],0.19 mg/dL
same,GLUCOSE,[3],148.33 mg/dL
same,LACTATE DEHYDROGENASE,[3],151.33 u/L
same,LIPASE,[3],11.67 u/L
same,PHOSPHORUS,[3],13.93 mg/dL
same,POTASSIUM,[3],5.57 MEQ/L
same,SODIUM,[3],143.77 MEQ/L
same,TOTAL BILIRUBIN,[3],0.2 mg/dL
same,TOTAL PROTEIN,[3],5.73 G/DL
same,URIC ACID,[3],1 mg/dL
same,ABSOLUTE BASOPHIL,[4],0 CELLS/uL
same,ABSOLUTE EOSINOPHIL,[4],54.67 CELLS/uL
same,ABSOLUTE LYMPHOCYTE,[4],13302.33 CELLS/uL
same,ABSOLUTE MONOCYTE,[4],273 CELLS/uL
same,ABSOLUTE SEGMENTED NEUTROPHIL,[4],1603.33 CELLS/uL
same,BASOPHIL,[4],0%
same,EOSINOPHIL,[4],0.33%
same,ERYTHROCYTE COUNT,[4],6.16 x10E6/uL
same,HEMATOCRIT,[4],38.17%
same,HEMOGLOBIN,[4],14.63 G/DL
same,LEUKOCYTE COUNT,[4],15.23 x10E3/uL
same,LYMPHOCYTE,[4],87.67%
same,MEAN CORPUSCULAR HEMOGLOBIN,[4],23.73 pg
same,MEAN CORPUSCULAR HEMOGLOBIN CONCENTRATION,[4],38.4 G/DL
same,MEAN CORPUSCULAR VOLUME,[4],61.93 fL
same,MONOCYTE,[4],2%
same,NEUTROPHIL,[4],10%
same,NUCLEATED RED BLOOD CELLS,[4],0.33 /100WBC
same,PLATELET COUNT,[4],914.67 x10E3/uL
same,ALANINE AMINOTRANSFERASE,[4],125.67 u/L
same,ALBUMIN,[4],4.53 G/DL
same,ALKALINE PHOSPHATASE,[4],515 u/L
same,ASPARTATE AMINOTRANSFERASE,[4],127.67 u/L
same,BLOOD UREA NITROGEN,[4],18.67 mg/dL
same,CARBON DIOXIDE,[4],29 mmol/L
same,CHLORIDE,[4],103 MEQ/L
same,CHOLESTEROL,[4],65.33 mg/dL
same,CREATINE PHOSPHOKINASE,[4],548 u/L
same,CREATININE,[4],0.23 mg/dL
same,GLUCOSE,[4],140.67 mg/dL
same,LACTATE DEHYDROGENASE,[4],324.33 u/L
same,LIPASE,[4],11 u/L
same,PHOSPHORUS,[4],13.1 mg/dL
same,POTASSIUM,[4],5.71 MEQ/L
same,SODIUM,[4],146.3 MEQ/L
same,TOTAL BILIRUBIN,[4],0.27 mg/dL
same,TOTAL PROTEIN,[4],5.97 G/DL
same,URIC ACID,[4],0.9 mg/dL
